Measurements as given in US9073897B2, “Cyclic sulfonium salt, process for production of same, and α-glucosidase inhibitor comprising same” (KINKI UNIVERSITY, priority 2011, dated 2015).

Tests used:
Assay type in all cases: biochemical
Maltase = assay: α-glucosidase inhibition, rat small intestinal brush border membrane, maltose substrate; conditions: rat small intestine brush border membrane; maltose (74 mM); 0.1M maleate buffer (pH6.0); 37° C. for 30 minutes
Protocol: (§1) Brush border membrane follicles of rat's small intestine were prepared in accordance with the literature (Kessler, M. et al., Biochem. Biophys. Act, 1978, 506, 136), and a suspension of the follicles in 0.1M maleate buffer (pH6.0) was used as an intraintestinal α-glucosidase (maltase, sucrose and isomaltase).
A compound to be tested was dissolved in methylsulfoxide (DMSO) and the resulting solution was diluted with 0.1M maleate buffer to prepare a solution of the testing compound (DMSO concentration: 10%). A solution of a substrate (sucrose (74 mM), maltose (74 mM) or isomaltose (74 mM, […]) in the maleate buffer, a solution (25 μl) of the testing compound and the enzyme solution (25 μl) were mixed and the resulting solution was incubated at 37° C. for 30 minutes. Immediately after incubation, the resulting solution was heated by boiling water to terminate the reaction and mixed with water (150 μl). The concentration of glucose was measured by glucose oxidase method. The final concentration of DMSO in the testing solution was set to 2.5%, and no influence of DMSO on an inhibitory activity was detected. A 50% inhibitory concentration (IC50) was computed from the measured values.

Sucrase = molecular target: T1, Sucrase (Rattus norvegicus, UniProt P23739); assay: α-glucosidase inhibition, rat small intestinal brush border membrane, sucrose substrate; conditions: rat small intestine brush border membrane; sucrose (74 mM); 0.1M maleate buffer (pH6.0); 37° C. for 30 minutes
T1 construct: Brush border membrane follicles of rat's small intestine were prepared; from tissue; host or cells: rat small intestine brush border membrane vesicles
Protocol: as §1
(§2) A compound to be tested was dissolved in methylsulfoxide (DMSO) and the resulting solution was diluted with 0.1M maleate buffer to prepare a solution of the testing compound (DMSO concentration: 10%). […] A 50% inhibitory concentration (IC50) was computed from the measured values.

Isomaltase = molecular target: T2, Isomaltase (Rattus norvegicus, UniProt P23739); assay: α-glucosidase inhibition, rat small intestinal brush border membrane, isomaltose substrate; conditions: rat small intestine brush border membrane; isomaltose (74 mM); 0.1M maleate buffer (pH6.0); 37° C. for 30 minutes
T2 construct: Brush border membrane follicles of rat's small intestine were prepared; from tissue; host or cells: rat small intestine brush border membrane vesicles
Protocol: as §1, §2

T1 sequence (P23739 whole entry): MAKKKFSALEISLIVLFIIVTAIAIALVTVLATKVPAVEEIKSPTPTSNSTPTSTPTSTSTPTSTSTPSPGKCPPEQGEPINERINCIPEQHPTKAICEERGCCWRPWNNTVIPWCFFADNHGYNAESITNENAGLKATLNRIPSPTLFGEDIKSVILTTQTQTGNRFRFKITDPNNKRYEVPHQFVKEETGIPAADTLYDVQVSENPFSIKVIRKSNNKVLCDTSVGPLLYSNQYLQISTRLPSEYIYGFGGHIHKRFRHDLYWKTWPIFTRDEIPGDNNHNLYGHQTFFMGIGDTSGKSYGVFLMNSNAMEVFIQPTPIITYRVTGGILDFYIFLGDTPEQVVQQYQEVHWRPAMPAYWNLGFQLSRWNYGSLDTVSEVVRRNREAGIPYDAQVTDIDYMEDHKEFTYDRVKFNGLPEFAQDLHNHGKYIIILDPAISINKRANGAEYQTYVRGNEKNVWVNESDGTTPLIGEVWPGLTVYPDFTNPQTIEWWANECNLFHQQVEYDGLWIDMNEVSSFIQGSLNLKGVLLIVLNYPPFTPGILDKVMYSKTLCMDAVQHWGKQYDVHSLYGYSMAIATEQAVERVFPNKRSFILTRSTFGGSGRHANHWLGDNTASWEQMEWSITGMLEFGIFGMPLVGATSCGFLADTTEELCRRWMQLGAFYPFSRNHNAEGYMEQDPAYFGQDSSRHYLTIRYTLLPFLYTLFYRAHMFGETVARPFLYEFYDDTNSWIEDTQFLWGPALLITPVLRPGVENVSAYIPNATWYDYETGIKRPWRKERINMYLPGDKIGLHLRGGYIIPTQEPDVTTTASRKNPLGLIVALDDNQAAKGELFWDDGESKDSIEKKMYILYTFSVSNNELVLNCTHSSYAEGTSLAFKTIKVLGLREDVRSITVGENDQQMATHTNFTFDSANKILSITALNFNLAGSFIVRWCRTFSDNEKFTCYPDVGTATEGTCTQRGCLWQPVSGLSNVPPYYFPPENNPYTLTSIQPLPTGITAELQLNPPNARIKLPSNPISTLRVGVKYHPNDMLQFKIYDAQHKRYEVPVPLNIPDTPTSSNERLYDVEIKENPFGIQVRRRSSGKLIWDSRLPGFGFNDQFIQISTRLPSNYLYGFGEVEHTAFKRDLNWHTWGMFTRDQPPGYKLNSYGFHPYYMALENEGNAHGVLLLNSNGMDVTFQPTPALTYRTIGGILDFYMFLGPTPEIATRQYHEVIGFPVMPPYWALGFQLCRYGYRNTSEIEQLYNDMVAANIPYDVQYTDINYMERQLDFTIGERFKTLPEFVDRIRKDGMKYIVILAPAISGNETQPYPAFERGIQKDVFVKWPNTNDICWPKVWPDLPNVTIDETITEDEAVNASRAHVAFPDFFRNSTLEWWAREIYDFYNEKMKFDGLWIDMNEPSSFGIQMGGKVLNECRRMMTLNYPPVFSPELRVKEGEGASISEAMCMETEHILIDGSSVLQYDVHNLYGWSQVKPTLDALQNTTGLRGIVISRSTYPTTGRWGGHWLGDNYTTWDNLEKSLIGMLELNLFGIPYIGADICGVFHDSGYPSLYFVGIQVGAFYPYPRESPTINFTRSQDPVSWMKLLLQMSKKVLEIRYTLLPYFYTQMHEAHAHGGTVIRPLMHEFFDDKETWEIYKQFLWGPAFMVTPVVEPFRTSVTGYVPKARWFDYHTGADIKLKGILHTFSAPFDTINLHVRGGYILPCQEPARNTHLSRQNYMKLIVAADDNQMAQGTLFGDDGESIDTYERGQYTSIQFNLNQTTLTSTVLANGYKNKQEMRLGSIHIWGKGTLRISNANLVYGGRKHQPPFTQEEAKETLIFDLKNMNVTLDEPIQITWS
T2 sequence (P23739 whole entry): as above

SMILES | α-glucosidase (IC50) Maltase (Maltase) [µg/mL] | IC50 (Sucrase) [µM] | IC50 (Isomaltase) [µM] | α-glucosidase (IC50) Sucrase (Sucrase) [µg/mL] | α-glucosidase (IC50) Isomaltase (Isomaltase) [µg/mL]
CCCCCCCCCCCCCOC(CO)C(O)C[S+]1CC(O)C(O)C1CO [Compound (Ie), 1,4-Dideoxy-1,4-[(R)-[4-deoxy-2-O-(1-tridecyl)-D-erythritol-4-yl]episulfoniumylidene]-D-arabitol chloride] | 1.04 | 2.95 | 2.17 | – | –
F[B-](F)(F)F.OC[C@H](OCc1ccccc1)[C@H](O)C[S@+]1C[C@@H](O)[C@H](O)[C@H]1CO [Compound (Ig) (X = BF4), 1,4-dideoxy-1,4-[(R)-[2-O-benzyl-4-deoxy-D-erythritol-4-yl]episulfoniumylidene]-D-arabitol tetrafluoroborate] | 0.44 | – | – | 0.32 | 0.12
OCC(OCc1ccc(C(F)(F)F)cc1)C(O)C[S+]1CC(O)C(O)C1CO [Compound (Is), 1,4-Dideoxy-1,4-[(R)-[4-deoxy-2-O-(p-trifluoromethylbenzyl)-D-erythritol-4-yl]episulfoniumylidene]-D-arabitol chloride] | 0.98 | 1.35 | 0.919 | – | –
COC(CO)C(O)C[S+]1CC(O)C(O)C1CO [Compound (Ia), 1,4-Dideoxy-1,4-[(R)-[4-deoxy-2-O-methyl-D-erythritol-4-yl]episulfoniumylidene]-D-arabitol chloride] | 5.3 | 1.71 | 1.45 | – | –
OCC(OCc1cccc(Cl)c1)C(O)C[S+]1CC(O)C(O)C1CO [Compound (Il), 1,4-Dideoxy-1,4-[(R)-[2-O-(m-chlorobenzyl)-4-deoxy-D-erythritol-4-yl]episulfoniumylidene]-D-arabitol chloride] | 0.53 | 2.11 | 0.816 | – | –
OCC(OCc1ccccc1Cl)C(O)C[S+]1CC(O)C(O)C1CO [Compound (Ik), 1,4-Dideoxy-1,4-[(R)-[2-O-(o-chlorobenzyl)-4-deoxy-D-erythritol-4-yl]episulfoniumylidene]-D-arabitol chloride] | 0.31 | 0.237 | 0.684 | – | –
OCC(CO)N[C@H]1C[C@](O)(CO)[C@@H](O)[C@H](O)[C@H]1O [voglibose, reference compound] | – | 0.823 | 7.86 | – | –
Cc1cccc(COC(CO)C(O)C[S+]2CC(O)C(O)C2CO)c1 [Compound (Ii), 1,4-Dideoxy-1,4-[(R)-[4-deoxy-2-O-(m-methylbenzyl)-D-erythritol-4-yl]episulfoniumylidene]-D-arabitol chloride] | 0.84 | 3.62 | 0.974 | – | –
OCC(OCc1ccccc1)C(O)C[S+]1CC(O)C(O)C1CO [Compound (Ig) (X = Cl), 1,4-Dideoxy-1,4-[(R)-[2-O-benzyl-4-deoxy-D-erythritol-4-yl]episulfoniumylidene]-D-arabitol chloride] | 0.58 | 1.59 | 0.579 | – | –
CCOC(CO)C(O)C[S+]1CC(O)C(O)C1CO [Compound (Ib), 1,4-Dideoxy-1,4-[(R)-[4-deoxy-2-O-ethyl-D-erythritol-4-yl]episulfoniumylidene]-D-arabitol chloride] | – | 0.423 | 0.953 | – | –
Cc1ccc(COC(CO)C(O)C[S+]2CC(O)C(O)C2CO)cc1 [Compound (Ij), 1,4-Dideoxy-1,4-[(R)-[4-deoxy-2-O-(p-methylbenzyl)-D-erythritol-4-yl]episulfoniumylidene]-D-arabitol chloride] | 0.86 | 3.06 | 1.89 | – | –
CCCCCOC(CO)C(O)C[S+]1CC(O)C(O)C1CO [Compound (Ic), 1,4-Dideoxy-1,4-[(R)-[4-deoxy-2-O-(1-pentyl)-D-erythritol-4-yl]episulfoniumylidene]-D-arabitol chloride] | 1.52 | 1.54 | 1.44 | – | –
Cc1ccccc1COC(CO)C(O)C[S+]1CC(O)C(O)C1CO [Compound (Ih), 1,4-Dideoxy-1,4-[(R)-[4-deoxy-2-O-(o-methylbenzyl)-D-erythritol-4-yl]episulfoniumylidene]-D-arabitol chloride] | 0.66 | 1.14 | 1.34 | – | –

The remaining compounds from weak to strong by IC50 (Sucrase), led by results:

α-glucosidase (IC50) Maltase (Maltase) [µg/mL] | IC50 (Sucrase) [µM] | IC50 (Isomaltase) [µM] | α-glucosidase (IC50) Sucrase (Sucrase) [µg/mL] | α-glucosidase (IC50) Isomaltase (Isomaltase) [µg/mL] | SMILES
5.2 | 4.79 | 3.89 | – | – | O=S(=O)([O-])OC(CO)C(O)C[S+]1CC(O)C(O)C1CO (stereo not shown) [Salacinol, salacinol, reference compound]
1 | 2.13 | 0.799 | – | – | OCc1ccc(COC(CO)C(O)C[S+]2CC(O)C(O)C2CO)cc1 [Compound (Iw), 1,4-Dideoxy-1,4-[(R)-[4-deoxy-2-O-(p-hydroxymethyl)benzyl)-D-erythritol-4-yl]episulfoniumylidene]-D-arabitol chloride]
0.89 | 1.9 | 1.79 | – | – | OCC(OCc1ccc(Cl)cc1)C(O)C[S+]1CC(O)C(O)C1CO [Compound (Im), 1,4-Dideoxy-1,4-[(R)-[2-O-(p-chlorobenzyl)-4-deoxy-D-erythritol-4-yl]episulfoniumylidene]-D-arabitol chloride]
0.68 | 0.973 | 0.589 | – | – | O=[N+]([O-])c1ccc(COC(CO)C(O)C[S+]2CC(O)C(O)C2CO)cc1 [Compound (Iv), 1,4-Dideoxy-1,4-[(R)[4-deoxy-2-O-(p-nitrobenzyl)-D-erythritol-4-yl]episulfoniumylidene]-D-arabitol chloride]
0.8 | 0.679 | 0.707 | – | – | CCCCCCCOC(CO)C(O)C[S+]1CC(O)C(O)C1CO [Compound (Id), 1,4-Dideoxy-1,4-[(R)-[4-deoxy-2-O-(1-heptyl)-D-erythritol-4-yl]episulfoniumylidene]-D-arabitol chloride]
0.3 | 0.277 | 0.86 | – | – | CC(C)(C)COC(CO)C(O)C[S+]1CC(O)C(O)C1CO [Compound (If), 1,4-Dideoxy-1,4-[(R)-[4-deoxy-2-O-neopentyl-D-erythritol-4-yl]episulfoniumylidene]-D-arabitol chloride]
